Results as given in patent US9862748B2, “Peptide compounds and methods of production and use thereof” (priority 2012, dated 2018).
Like-named read-outs stand apart in the source and are kept apart here. Square brackets hold non-standard residues; d marks the D form. Ends that are not written are not given here. Peptide text beside a SMILES is read from it. AEEA = NCCOCCOCC(=O)O

Tests used:
[1] = design: species or system male Sprague Dawley rats; conditions: rat, in vivo, iv
Experimental: The purpose of this example was to assess the pharmacokinetics, distribution, and excretion of ^14C-BCC03-5RMP (SEQ ID NO: 23) following a single intravenous administration to male rats. Pharmacokinetic, excretion, and distribution profiles of ^14C-BCC03-5RMP-derived radioactivity were examined in male Sprague Dawley rats following a single intravenous administration of ^14C-BCC03-5RMP (20 mg/kg; 125 μCi/kg). ^14C-BCC03-5RMP was formulated in 5% (v:v) dextrose in water, pH 5.5 and was administered at a dose volume of 5 mL/kg. For assessment of pharmacokinetics of total radioactivity (Group 1), blood was collected at 0.25, 0.5, 1, 2, 4, 8, 24, 48, and 72 hours postdose. For assessment of excretion profiles, urine was collected from 0-8 and 8-24 hours postdose, and at 24-hour intervals through 168 hours postdose. Feces was collected at 24-hour intervals through 168 hours postdose. For assessment of distribution profiles, one animal/time point was sacrificed at 0.25, 1, 4, 24, and 72 hours postdose, and the carcasses were prepared for quantitative whole-body autoradiography (QWBA). Concentrations of radioactivity in whole blood, plasma, urine, feces (after oxidation), cage rinse, cage wash, and carcass were determined by liquid scintillation counting (LSC). Tissue concentrations were calculated by interpolation from each standard curve using MCID™ analysis software (InterFocus Imaging Ltd Corp., UK). Pharmacokinetic parameters for total radioactivity in blood and plasma were calculated using WinNonlin Professional Edition (version 5.2, Pharsight Corporation, St. Louis, Mo.).

[2] = test system: human corneal epithelial cell (HCEC); assay: HCEC chemotaxis, modified Boyden chemotaxis chamber assay; type: cell-based; conditions: for HCEC migration versus buffer control: 120-146QH 10^−4 to 10^−10 M, 120-146QR 10^−6 and 10^−8 M, HB-EGF 50 ng/ml, rCAP37 250 ng/ml, 3 hours
Experimental: The effect of buffer control (0.1% BSA in Gey's buffer), heparin binding-epidermal growth factor (HB-EGF, 50 ng/ml), recombinant CAP37 (rCAP37, 250 ng/ml), 120-146QH ([…], 10^−10M, 10^−8M, 10^−4M, and 10^−4M,) and 120-146QR (10^−10M, 10^−8M, 10^−6M, and 10^−4M) on HCEC chemotaxis was determined by the modified Boyden chemotaxis chamber method. HCEC chemotaxis was measured in response to HB-EGF, rCAP37, and peptides 120-146QH (SEQ ID NO: 29) and 120-146QR (SEQ ID NO: 28) after incubation for 3 hours at 37° C. Chemotaxis is expressed as a percent migration. The buffer control (no chemoattractant) is arbitrarily assigned the value of 100% migration. Data are expressed as means±SEM and are calculated from 6 observations for each test point. **P<0.01 by Wilcoxon signed-rank test as compared to controls.
Chemotaxis assays were performed using the modified Boyden chemotaxis chamber assay. Peptide 120-146QH was used at 10^−4M, 10^−6M, 10^−8 M, 10^−10 M, and 10^−12M, and peptide 120-146QR was used at 10^−4M, 10^−6M, 10^−8 M, and 10^−10 M.

[3] = test system: E. coli ATCC® strain 25922™; type: cell-based, Escherichia coli; design: unit not given here; conditions: Table 6
Experimental: (§1) In vitro bactericidal activity: The three peptide compounds BCC01-5RMP (SEQ ID NO: 21), BCC02-5RMP (SEQ ID NO: 22), and BCC03-5RMP (SEQ ID NO: 23) were assayed for in vitro bactericidal activity against Pseudomonas aeruginosa, Escherichia coli, Salmonella typhimurium, and Acinetobacter baumannii. The starting inoculum for all experiments was 1×10^6 colony forming units (CFU)/ml. The CFU remaining at the end of 60 to 180 minute incubation was determined, and the data plotted as a log reduction in CFU/ml.

[4] = test system: Pseudomonas aeruginosa ATCC® 27853™; type: cell-based; design: Effects of Peptide Compounds on Pseudomonas aeruginosa ATCC ® 27853 ™: unit not given here; conditions: Table 6
Experimental: as §1
For FIGS. 10-13, in vitro bactericidal assays were performed using a starting inoculum of 1×10^6 CFU/ml of the bacterial suspension. The CFU remaining at the end of the 60-180 minute incubation was determined, and the data was plotted as log reduction in CFU/ml.
In particular, each of the test peptides (CAP37 peptides 120-146WR, 120-146WH, and 95-122 (SEQ ID NOs: 30, 31, and 26, respectively)) was used at 25, 12.5, 6.25, and 3.12 μM. Gentamicin was used at 4 μg/ml. 1×10^6/ml Acinetobacter baumannii ATCC® BAA-747™ or Pseudomonas aeruginosa ATCC® 27853™ (American Type Culture Collection, Manassas, Va.) were incubated with the peptides, negative buffer control (tryptone saline), and positive control gentamicin at pH 5.5 or 7.2. A 60 minute incubation was used for Acinetobacter baumannii ATCC® BAA-747™, while a 180 minute incubation was used for Pseudomonas aeruginosa ATCC® 27853™. 50 μl aliquots were plated out on agar plates and incubated overnight. Colony forming units were counted after overnight incubation and CFU/ml calculated.
For FIG. 14, 1×10^6/ml Pseudomonas aeruginosa ATCC® 27853™ were incubated with each of the test peptides (CAP37 peptides 120-146WR, 120-146WH, 120-146QR, 120-146QH, 120-146QR-5RMP, and 120-146QH-5RMP (SEQ ID NOs: 30, 31, 28, 29, 32, and 33, respectively)) at 150, 75, and 37.5 μg/ml, or negative buffer control (tryptone saline), for 180 minutes at pH 5.5. 50 μl aliquots were plated out on agar plates and incubated overnight. Colony forming units were counted after overnight incubation and CFU/ml calculated.

[5] = test system: mouse cornea (corneal epithelial abrasion); assay: In vivo model of corneal wound healing; conditions: treated at 0 and 16 hours; 95-122 10^−5 M; 120-146WH 10^−8 M or 10^−6 M; HB-EGF 250 ng/ml
Experimental: The in vivo model of wound healing was carried out using a disposable biopsy punch (2 mm, Miltex, York, Pa.) to demarcate the mouse cornea and a 0.5 mm burr using the AlgerBrush II (The Alger Company, Inc., Lago Vista, Tex.) to remove the corneal epithelium.
Mice were anesthetized using ketamine (100 mg/kg; Bionichepharma, LLC., St. Lake Forrest, Ill.) and xylazine ([…]; Rompun; Bayer Corp., Shawnee Mission, Kans.), and the right cornea was wounded as follows. A disposable biopsy punch (2 mm, Miltex, York, Pa.) was used to demarcate the mouse cornea. The corneal epithelium was carefully removed within the 2 mm demarcated area with a 0.5 mm burr using the AlgerBrush II (The Alger Company, Inc., Lago Vista, Tex.). The corneal abrasions were treated at 0 and 16 hours with HB-EGF (250 ng/ml), rCAP37 (250 ng/ml), or vehicle control (0.9% sodium chloride, pH 5.5, Baxter, Deerfield, Ill.). Corneal abrasions were visualized using sterile fluorescein sodium ophthalmic strips USP (FLUORETS®, Chauvin Laboratory, Aubenas, France) dampened with sterile PBS. Images were taken at 0, 16, 24, and 48 hours immediately following fluorescein staining using a surgical microscope equipped with a camera (Carl Zeiss OPMI VISU 140, Carl Zeiss Surgical, Inc., Oberkochen, Germany). The areas of the open wound were quantitated using ImageJ software (US National Institutes of Health), and the results were reported as the percentage of wound closure.
Whole mouse eyes were collected for histology at 0, 6, 16, 24, and 48 hours post wounding and were immediately placed in Prefer fixative (Anatech LTD., Battle Creek, Mich.) for 20 minutes before being transferred to 70% ethanol. Tissues were paraffin-embedded and cut at a thickness of 5 μm, mounted on SUPERFROSTPLUS® slides (Statlab Medical Products, Lewisville, Tex.), and subsequently deparaffinized, rehydrated, and washed in deionized water. Sections were stained with hematoxylin (Leica Microsystems, Buffalo Grove, Ill.) and rinsed twice in deionized water before being washed in Blue Buffer (Leica Microsystems). The sections were finally washed in deionized water and 95% ethanol prior to being counterstained with eosin (Leica Microsystems). Sections were dehydrated in ethanol and cleared in xylene.

HCEC monolayers = assay: In vitro scratch assay of wound closure; type: cell-based, human; conditions: 250 ng/ml
Experimental: An in vitro scratch assay was used in order to determine the ability of rCAP37 to facilitate corneal wound healing. Human corneal epithelial cells were cultured as described above until they reached a confluent monolayer. Each monolayer was scratched using a 10 μl pipette tip to create two perpendicular lines. Monolayers were treated with heparin binding-epidermal growth factor (HB-EGF, 250 ng/ml; Becton Dickinson), rCAP37 (25-2000 ng/ml), or basal KSFM (Gibco). Wound closure was monitored at 0, 18, 24, and 48 hours utilizing a camera-equipped inverted microscope (TE2000-E; Nikon, Melville, N.Y.). Time-lapse images of in vitro wound closure were obtained using a camera-equipped inverted microscope (TE2000-E; Nikon) from 0-18 hours. HCEC monolayers were treated with HB-EGF, rCAP37, and basal KSFM as described above. The width of each scratch was quantitated using ImageJ software (US National Institutes of Health, Bethesda, Md.). Results are presented as the percentage of wound closure.

## CC[C@H](C)[C@H](NC(=O)[C@H](CC(C)C)NC(=O)[C@H](C)NC(=O)CNC(=O)CNC(=O)[C@H](CS)NC(=O)[C@H](Cc1ccccc1)NC(=O)[C@H](Cc1c[nH]cn1)NC(=O)[C@H](CCCNC(=N)N)NC(=O)CNC(=O)[C@H](CCC(N)=O)NC(=O)[C@H](CC(N)=O)NC(=O)[C@H](CCCNC(=N)N)NC(=O)[C@H](CCCNC(=N)N)NC(=O)[C@H](CCCNC(=N)N)NC(=O)[C@H](CCCNC(=N)N)NC(=O)COCCOCCNC(=O)COCCOCCN)C(=O)N[C@@H](Cc1c[nH]cn1)C(=O)N[C@@H](C)C(=O)N[C@@H](CCCNC(=N)N)C(=O)N[C@@H](Cc1ccccc1)C(=O)N[C@H](C(=O)N[C@@H](CCSC)C(=O)N[C@H](C(=O)N[C@@H](C)C(=O)N[C@@H](C)C(=O)N[C@@H](CO)C(=O)N[C@@H](CO)C(=O)N[C@@H](Cc1ccccc1)C(=O)N[C@@H](CCC(N)=O)C(=O)N[C@@H](CCCNC(=N)N)C(=O)O)[C@@H](C)O)C(C)C [^14C-BCC03-5RMP] (H-[AEEA][AEEA]RRRRNQGRHFCGGALIHARFVMTAASSFQR-OH; N-terminus assumed)
[1]
  administered radioactivity eliminated within the first 48 hours postdose: approximately 55%
[1]; 20 mg/kg
  Clearance of radioactivity in plasma compared to blood: approximately 2 fold
  exposure (AUC0-∞) in blood compared to plasma: approximately 2 fold
  volume of distribution of total radioactivity in blood compared to plasma: approximately 1.6 fold

## GTRCQVAGWGSQHSGGRLSRFPRFVNV [Peptide 120-146QH]
[2]
  HCEC migration versus buffer control: significantly increase migration
[2]; 120-146QH at 10^−6 M and 10^−8 M
  HCEC migration compared with whole CAP37 protein: comparable

## GTRCQVAGWGSQRSGGRLSRFPRFVNV [Peptide 120-146QR]
[2]
  HCEC migration versus buffer control: significantly increase migration

## RRRRNQGRHFCGGALIHARFVMTAASCFQR (5-arginine peptide derivative of CAP37 peptide) [SEQ ID NO: 18 (Linear)]
[3]; Peptide Conc 262.8 μg/ml
  Effects of Peptide Compounds on Escherichia coli ATCC ® 25922 ™: 100.0
[4]; Peptide Conc 87.6 μg/ml
  Effects of Peptide Compounds on Pseudomonas aeruginosa ATCC ® 27853 ™: 100.0

## RRRRNQGRHFCGGALIHARFVMTAASCFQR (not fully specified; cysteine pairing not given here) [SEQ ID NO: 18 (Cyclized)]
[3]; Peptide Conc 25 μg/ml
  Effects of Peptide Compounds on Escherichia coli ATCC ® 25922 ™: 38.0
[3]; Peptide Conc 400 μg/ml
  Effects of Peptide Compounds on Escherichia coli ATCC ® 25922 ™: 82.0
[4]; Peptide Conc 3.125 μg/ml
  Effects of Peptide Compounds on Pseudomonas aeruginosa ATCC ® 27853 ™: 100.0
[4]; Peptide Conc 6.25 μg/ml
  Effects of Peptide Compounds on Pseudomonas aeruginosa ATCC ® 27853 ™: 100.0
[4]; Peptide Conc 12.5 μg/ml
  Effects of Peptide Compounds on Pseudomonas aeruginosa ATCC ® 27853 ™: 100.0
[4]; Peptide Conc 25 μg/ml
  Effects of Peptide Compounds on Pseudomonas aeruginosa ATCC ® 27853 ™: 100.0
[4]; Peptide Conc 50 μg/ml
  Effects of Peptide Compounds on Pseudomonas aeruginosa ATCC ® 27853 ™: 100.0
[4]; Peptide Conc 100 μg/ml
  Effects of Peptide Compounds on Pseudomonas aeruginosa ATCC ® 27853 ™: 100.0
[4]; Peptide Conc 200 μg/ml
  Effects of Peptide Compounds on Pseudomonas aeruginosa ATCC ® 27853 ™: 100.0
[4]; Peptide Conc 400 μg/ml
  Effects of Peptide Compounds on Pseudomonas aeruginosa ATCC ® 27853 ™: 100.0

B1: HB-EGF: heparin binding-epidermal growth factor, used as the positive control (protein, UniProt Q99075 63-148, looked up)
Heparin-binding EGF-like …: DLQEADLDLLRVTLSSKPQALATPNKEEHGKRKKKGKGLGKKRDPCLRKYKDFCIHGECKYVKELRAPSCICHPGYHGERCHGLSL
[5]
  corneal wound healing versus vehicle: significantly higher
[2]
  HCEC migration versus buffer control: significant increase in migration
HCEC monolayers
  time to complete closure of scratched monolayers: ≤ 24 h
HCEC monolayers; at 18 hours
  percentage wound closure in vitro: ~88%
